# Assay results published in publication PMC6105598, “Targeting protein-protein interactions for therapeutic discovery via FRET-based high-throughput screening in living cells” (Scientific Reports, 2018).
# Experiments:
# [1] = biological target: SERCA2a-PLB complex (GFP-SERCA2a / RFP-PLB in HEK293 cells) (Homo sapiens, UniProt P16615+P26678, C36A/C41F/C46A); test: FRET of SERCA2a-PLB biosensor in saponin-permeabilized cells at low and high Ca; details: 100 nM Tg, low Ca (100 nM) vs high Ca (10 µM)
# Description: To test this, we quantified FRET changes in permeabilized cells under conditions of low Ca (100 nM) and high Ca (10 µM).
# (a) Left- FLT measurements in saponin-permeabilized cells under conditions of low Ca (100 nM) and high Ca (10 µM), and in the absence and presence (100 nM) of the SERCA inhibitor thapsigargin (Tg). […] Error bars indicate SD (n = 3). Statistical differences determined using 1-way ANOVA followed by Tukey post hoc analysis (more detailed analysis is provided in Supplemental Table 4). *P ≤ 0.01 and N.S. indicating P ≥ 0.05.
# To generate SERCA2a-PLB biosensor, HEK293 cells were transiently transfected using Lipofectamine 3000 with GFP-SERCA2a and RFP-PLB in a 1:7 molar ratio for the screen. Cells were then assayed 48 hours post-transfection. For cell permeabilization experiments, cells were trypsinized (TrypLE, Thermo Fischer Scientific), PBS-washed (three times), and resuspended in a homogenization buffer (20 mM MOPS, 0.5 MgCl2, protease inhibitor cocktail (Roche, Basel, Switzerland)). Saponin (Sigma-Aldrich) was added to a final concentration of 10 µg/mL and cells were incubated for 4 min at 37 °C water bath. Saponin was removed by centrifugation for 3 min, cells were washed twice with homogenization buffer, and resuspended in homogenization buffer.
# [2] = tested on: skeletal muscle SR Ca-ATPase; parameters: method as in PMID 12022919; details: high concentrations (50 µM); cited from earlier work
# [3] = biological target: T1, skeletal SR (SERCA1a only) (Oryctolagus cuniculus, UniProt P04191); test: Ca-ATPase activity of skeletal SR (SSR), NADH-linked enzyme-coupled assay; type: biochemical, rabbit
# T1 construct: Skeletal muscle SR membrane vesicles were isolated from longissimus dorsi obtained from New Zealand white rabbits; from tissue; host or cells: rabbit longissimus dorsi skeletal muscle, SR membrane vesicles
# Description: To further examine the functional effects of Hit compounds, Ca-ATPase assays were performed on both skeletal SR (SERCA1a only) and cardiac SR (SERCA2a + PLB) at a series of Ca concentrations ranging from pCa 5 to 8.
# Skeletal muscle SR membrane vesicles were isolated from longissimus dorsi obtained from New Zealand white rabbits, as previously described. Cardiac SR membrane vesicles were isolated from ventricular myocardium obtained from fresh pig hearts. All experimental protocols were reviewed and approved by University of Minnesota’s Institutional Animal Care and Use Committee, an Association for Assessment and Accreditation of Laboratory Animal Care institution.
# An enzyme-coupled, NADH-linked ATPase assay was used to measure SERCA ATPase activity in 96-well microplates. Each well contained 0.8 μg (skeletal) or 2 μg (cardiac) of SR vesicles adjusted for the different SERCA contents of skeletal and cardiac SR, 50 mM MOPS (pH 7.0), 100 mM KCl, 5 mM MgCl2, 1 mM EGTA, 0.2 mM NADH, 1 mM phosphoenol pyruvate, 10 IU/mL of pyruvate kinase, 10 IU/mL of lactate dehydrogenase, 3.5 μg/mL of the Ca ionophore A23187, and CaCl2 added to set free [Ca] to the desired values. The assay was started upon the addition of ATP at a final concentration of 5 mM and read in a SpectraMax Plus microplate spectrophotometer rom Molecular Devices (Sunnyvale, CA).
# T1 sequence (P04191 1-994 isoform P04191-2): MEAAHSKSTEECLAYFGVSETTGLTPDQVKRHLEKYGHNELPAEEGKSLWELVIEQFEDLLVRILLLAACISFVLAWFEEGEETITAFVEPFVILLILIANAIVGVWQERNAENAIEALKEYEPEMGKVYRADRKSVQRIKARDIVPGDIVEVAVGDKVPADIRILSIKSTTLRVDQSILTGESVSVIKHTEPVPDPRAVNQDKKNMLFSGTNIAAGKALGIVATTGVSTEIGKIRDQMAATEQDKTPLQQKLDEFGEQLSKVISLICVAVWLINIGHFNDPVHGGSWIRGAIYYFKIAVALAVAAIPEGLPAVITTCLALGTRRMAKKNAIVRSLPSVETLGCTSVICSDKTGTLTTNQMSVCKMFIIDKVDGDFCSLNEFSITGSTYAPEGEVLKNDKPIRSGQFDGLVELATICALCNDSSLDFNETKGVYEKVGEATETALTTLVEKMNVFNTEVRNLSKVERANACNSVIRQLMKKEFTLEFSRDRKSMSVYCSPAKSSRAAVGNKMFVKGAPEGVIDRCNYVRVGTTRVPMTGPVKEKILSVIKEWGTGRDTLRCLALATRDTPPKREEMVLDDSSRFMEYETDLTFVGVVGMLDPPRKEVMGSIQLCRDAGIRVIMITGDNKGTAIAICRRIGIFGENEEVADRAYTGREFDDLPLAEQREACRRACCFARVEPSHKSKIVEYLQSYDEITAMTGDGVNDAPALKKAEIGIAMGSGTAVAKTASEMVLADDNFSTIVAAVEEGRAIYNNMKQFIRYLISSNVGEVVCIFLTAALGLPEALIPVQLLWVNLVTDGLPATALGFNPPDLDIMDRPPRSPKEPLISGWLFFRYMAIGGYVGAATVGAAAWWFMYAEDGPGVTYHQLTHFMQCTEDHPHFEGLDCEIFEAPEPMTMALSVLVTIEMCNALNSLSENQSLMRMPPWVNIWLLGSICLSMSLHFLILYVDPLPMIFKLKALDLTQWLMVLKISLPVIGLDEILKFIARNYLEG
# SERCA2a-PLB complex (GFP-SERCA2a / RFP-PLB in HEK293 cells), sequence (P16615 1-997 isoform P16615-2, stated change not applied): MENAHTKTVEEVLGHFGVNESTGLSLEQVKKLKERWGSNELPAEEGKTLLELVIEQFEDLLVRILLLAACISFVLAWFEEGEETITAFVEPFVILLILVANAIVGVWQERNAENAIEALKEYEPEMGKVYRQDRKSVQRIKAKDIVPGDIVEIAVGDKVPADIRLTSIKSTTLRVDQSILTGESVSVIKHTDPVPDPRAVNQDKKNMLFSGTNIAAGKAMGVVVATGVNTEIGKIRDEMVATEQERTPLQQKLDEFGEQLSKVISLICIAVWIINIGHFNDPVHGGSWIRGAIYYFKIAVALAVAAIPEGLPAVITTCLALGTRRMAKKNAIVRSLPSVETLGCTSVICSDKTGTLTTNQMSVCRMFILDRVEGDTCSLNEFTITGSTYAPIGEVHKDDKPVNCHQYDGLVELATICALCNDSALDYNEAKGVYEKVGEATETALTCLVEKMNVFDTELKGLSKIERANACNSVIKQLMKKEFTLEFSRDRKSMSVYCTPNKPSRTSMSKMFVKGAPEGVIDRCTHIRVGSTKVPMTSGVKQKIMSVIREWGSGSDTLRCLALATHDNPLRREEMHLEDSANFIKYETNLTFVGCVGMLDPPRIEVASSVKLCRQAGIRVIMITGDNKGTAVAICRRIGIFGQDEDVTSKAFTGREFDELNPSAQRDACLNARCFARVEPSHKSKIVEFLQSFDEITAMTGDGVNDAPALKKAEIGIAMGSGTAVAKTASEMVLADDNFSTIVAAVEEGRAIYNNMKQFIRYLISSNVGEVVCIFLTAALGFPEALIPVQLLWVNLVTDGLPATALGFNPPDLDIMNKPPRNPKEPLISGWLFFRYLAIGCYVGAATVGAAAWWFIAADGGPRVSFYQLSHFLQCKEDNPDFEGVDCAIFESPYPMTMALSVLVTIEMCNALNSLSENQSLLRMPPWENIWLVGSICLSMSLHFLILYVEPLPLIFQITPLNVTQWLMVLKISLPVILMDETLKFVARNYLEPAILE
# SERCA2a-PLB complex (GFP-SERCA2a / RFP-PLB in HEK293 cells), sequence (P26678 whole entry C36A/C41F/C46A): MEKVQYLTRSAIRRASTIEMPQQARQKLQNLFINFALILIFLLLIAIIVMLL
Compound,effect on Ca-dependent decrease in FRET [1],Ca-ATPase activity inhibited [2] [%],EC50 ([3]; SSR) [µM],"Vmax @ 30 µM ([3]; SSR, 30 µM compound) [i.u.]","ΔVmax @ 30 µM ([3]; SSR, 30 µM compound, relative to DMSO control) [%]","EC50 ([3]; SSR, listed as ivermectin) [µM]",decrease of Vmax ([3]; skeletal SR) [%]
C/C=C(/C)C(=O)O[C@H]1C(C)=C2[C@H]([C@@H]1OC(=O)CCCCCCC)[C@@](C)(OC(C)=O)C[C@H](OC(=O)CCC)[C@@]1(O)[C@H]2OC(=O)[C@@]1(C)O [thapsigargin],prevents the Ca-dependent decreases in FRET,,,,,,
Ivermectin,,90,5.75,0.32,-87.6,5.8,88
